Assay results taken from patent US20050239784A1 (priority 2002, published 2005).
Values after ≈ are worked out from the molar mass of the structure shown. Like-named read-outs stand apart in the source and are kept apart here.

Legend:
CDK4 = CDK4 (Homo sapiens, UniProt P11802); assay: biochemical
A2780 cells = assay: Cytotox survival of A2780 cells after 3 days; format: cell-based; conditions: for IC50: Homo sapiens, A2780, 72 h
Experimental: In an alternative assay, the growth inhibitory effect of the compounds was tested on the ovarian carcinoma cell line A2780 using art known cytotoxicity assays such as LIVE/DEAD (Molecular Probes) MTT.

AKT3 [1] = molecular target: T1, AKT3 (Homo sapiens, UniProt Q9Y243); assay: biochemical
Target sequence in this assay (Q9Y243 whole entry, species assumed): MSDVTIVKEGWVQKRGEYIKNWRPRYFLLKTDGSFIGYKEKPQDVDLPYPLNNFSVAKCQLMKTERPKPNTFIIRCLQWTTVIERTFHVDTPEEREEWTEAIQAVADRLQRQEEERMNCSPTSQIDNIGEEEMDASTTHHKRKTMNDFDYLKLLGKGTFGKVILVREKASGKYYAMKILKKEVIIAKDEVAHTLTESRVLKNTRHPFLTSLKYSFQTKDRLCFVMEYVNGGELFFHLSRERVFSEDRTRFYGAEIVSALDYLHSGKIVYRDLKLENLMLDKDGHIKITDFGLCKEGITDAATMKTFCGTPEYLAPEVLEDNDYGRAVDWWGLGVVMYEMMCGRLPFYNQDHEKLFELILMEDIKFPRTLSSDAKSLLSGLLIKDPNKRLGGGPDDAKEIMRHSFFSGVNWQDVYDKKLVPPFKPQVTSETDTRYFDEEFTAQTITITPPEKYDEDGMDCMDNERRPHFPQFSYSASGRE

physchem = conditions: pH 7.4, aqueous buffer, kinetic from dmso stock
AKT3 [2] = molecular target: T1, AKT3; assay: cell-based
Target sequence in this assay (Q9Y243 whole entry): as the sequence (Q9Y243 whole entry, species assumed) above

CDC25B = molecular target: T2, CDC25B (Homo sapiens, UniProt P30305); assay: biochemical
T2 sequence (P30305 1-580): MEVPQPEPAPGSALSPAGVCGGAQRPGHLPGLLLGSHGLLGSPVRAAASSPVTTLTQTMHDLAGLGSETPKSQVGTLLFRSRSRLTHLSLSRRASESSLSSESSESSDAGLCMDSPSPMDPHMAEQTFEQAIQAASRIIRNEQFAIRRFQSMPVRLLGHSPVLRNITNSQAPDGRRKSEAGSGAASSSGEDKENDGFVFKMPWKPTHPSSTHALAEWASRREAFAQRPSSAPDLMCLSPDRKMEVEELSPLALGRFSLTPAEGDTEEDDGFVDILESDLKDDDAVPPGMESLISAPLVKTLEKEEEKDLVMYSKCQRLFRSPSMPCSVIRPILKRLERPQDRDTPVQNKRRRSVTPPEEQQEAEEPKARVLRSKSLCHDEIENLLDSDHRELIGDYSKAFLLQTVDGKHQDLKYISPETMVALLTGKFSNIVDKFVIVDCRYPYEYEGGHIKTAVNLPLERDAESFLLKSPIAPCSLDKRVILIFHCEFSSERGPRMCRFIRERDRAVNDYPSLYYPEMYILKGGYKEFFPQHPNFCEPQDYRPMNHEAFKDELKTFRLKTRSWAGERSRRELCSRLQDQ

[3] = CDK4 SPA (Ex. C.1): pIC50 values
[4] = A2780 cells, 3 days, read-out: Cytotox survival of A2780 cells after 3 days - pIC50 values (converted)
[5] = AKT3 pep. (Ex. C.3): pIC50 values
[6] = read-out: CDK4 SPA (Ex. C.1): pIC50 values (converted)
[7] = read-out: AKT cel (Ex. C.6): pIC50 values (converted)
[8] = read-out: CDC25B WT (Ex. C.5): pIC50 values (converted)
[9] = read-out: AKT3 pep. (Ex. C.3): pIC50 values (converted)
[10] = read-out: Cytotox survival of A2780 cells after 3 days - pIC50 values, A2780 cells, 3 days (converted)
[11] = AKT cel (Ex. C.6): pIC50 values, MDA-MB 231 cells, phosphorylated MAPK read-out
[12] = CDC25B WT (Ex. C.5): pIC50 values

CDK4, sequence (P11802 whole entry, species assumed): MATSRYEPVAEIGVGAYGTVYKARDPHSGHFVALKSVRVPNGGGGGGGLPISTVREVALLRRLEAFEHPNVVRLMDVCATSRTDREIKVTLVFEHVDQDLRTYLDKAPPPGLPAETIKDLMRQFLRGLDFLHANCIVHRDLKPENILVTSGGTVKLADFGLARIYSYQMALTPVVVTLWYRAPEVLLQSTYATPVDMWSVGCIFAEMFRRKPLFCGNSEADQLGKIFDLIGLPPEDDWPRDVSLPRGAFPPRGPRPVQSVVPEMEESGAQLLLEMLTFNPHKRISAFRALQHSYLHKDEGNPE
CDK4, sequence (P24385 whole entry partner, species assumed): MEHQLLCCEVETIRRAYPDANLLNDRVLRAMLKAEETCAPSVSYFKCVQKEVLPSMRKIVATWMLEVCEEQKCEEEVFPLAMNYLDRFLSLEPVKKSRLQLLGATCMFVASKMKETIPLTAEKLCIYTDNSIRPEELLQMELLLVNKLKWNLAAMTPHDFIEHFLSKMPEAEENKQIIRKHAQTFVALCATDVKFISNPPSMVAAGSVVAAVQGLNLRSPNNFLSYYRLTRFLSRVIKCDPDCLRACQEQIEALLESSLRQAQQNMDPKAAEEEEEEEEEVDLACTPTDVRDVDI

SMILES: CC(C)n1nc(-c2ccc(OCCN3CCOCC3)c(Cl)c2)nc2c(=O)n(C)c(=O)nc1-2 [Compound 74]
- IC50 (CDK4; [3]): 161 nM
- IC50 (A2780 cells; [4]): 190 nM
- IC50 (AKT3 [1]; [5]): 111 nM
- solubility (physchem): 160 to 1800 µM (≈ 73.7 to 830 µg/mL)

SMILES: COc1cc(-c2nc3c(=O)n(C)c(=O)nc-3n(C(C)C)n2)cc(OC)c1OCCN1CCCCC1 [Compound 77]
- IC50 (CDK4; [6]): 293 nM
- Cytotox survival of A2780 cells after 3 days - pIC50 values (A2780 cells; A2780 cells, 3 days): 6.785
- IC50 (AKT3 [2]; [7]): > 1000 nM
- IC50 (CDC25B; [8]): 43.3 nM
- IC50 (AKT3 [1]; [9]): 240 nM

SMILES: COc1cc(-c2nc3c(=O)n(C)c(=O)nc-3n(C(C)C)n2)ccc1OCCN1CCCCC1 [Compound 78]
- IC50 (CDK4; [6]): 513 nM
- IC50 (A2780 cells; [10]): 269 nM
- IC50 (AKT3 [2]; [7]): 301 nM
- IC50 (CDC25B; [8]): 44 nM
- IC50 (AKT3 [1]; [9]): 262 nM
- solubility (physchem): > 1800 µM

SMILES: CC(C)n1nc(-c2ccc(OCCN3CCN(S(=O)(=O)N(C)C)CC3)cc2)nc2c(=O)n(C)c(=O)nc1-2 [Compound 79]
- IC50 (CDK4; [6]): 404 nM
- IC50 (A2780 cells; [10]): 513 nM
- IC50 (AKT3 [2]; [7]): ≥ 3000 nM
- IC50 (CDC25B; [8]): 26.2 nM
- IC50 (AKT3 [1]; [9]): 282 nM
- solubility (physchem): 160 to 1800 µM (≈ 85.2 to 959 µg/mL)

SMILES: CC(C)n1nc(-c2ccc(OCCN3CCN(C(=O)OC(C)(C)C)CC3)cc2)nc2c(=O)n(C)c(=O)nc1-2 [Compound 80]
- IC50 (CDK4; [6]): 372 nM
- IC50 (A2780 cells; [10]): 390 nM
- IC50 (AKT3 [2]; [7]): > 300 nM
- IC50 (CDC25B; [8]): 32.4 nM
- IC50 (AKT3 [1]; [9]): 395 nM
- solubility (physchem): 160 to 1800 µM (≈ 84.1 to 946 µg/mL)

SMILES: CC(C)n1nc(-c2ccc(OCCCN3CCCCC3)cc2)nc2c(=O)n(C)c(=O)nc1-2 [Compound 81]
- IC50 (CDK4; [6]): 194 nM
- IC50 (A2780 cells; [10]): 132 nM
- IC50 (AKT3 [2]; [7]): > 1000 nM
- IC50 (CDC25B; [8]): 38.9 nM
- IC50 (AKT3 [1]; [9]): 252 nM
- solubility (physchem): > 1800 µM

SMILES: CC(C)n1nc(-c2ccc(OCCN3CCNCC3)cc2)nc2c(=O)n(C)c(=O)nc1-2 [Compound 82]
- IC50 (CDK4; [6]): 300 nM
- IC50 (A2780 cells; [10]): 375 nM
- IC50 (AKT3 [2]; [7]): 216 nM
- IC50 (CDC25B; [8]): 50.2 nM
- IC50 (AKT3 [1]; [9]): 339 nM
- solubility (physchem): > 1800 µM

SMILES: CC(C)n1nc(-c2ccc(OCCCN3CCOCC3)cc2)nc2c(=O)n(C)c(=O)nc1-2 [Compound 84]
- IC50 (CDK4; [3]): 586 nM
- IC50 (A2780 cells; [4]): 216 nM
- IC50 (AKT3 [2]; [11]): > 1000 nM
- IC50 (CDC25B; [12]): 38.3 nM
- IC50 (AKT3 [1]; [5]): 280 nM
- solubility (physchem): > 1800 µM

SMILES: COc1cc(-c2nc3c(=O)n(C)c(=O)nc-3n(C(C)C)n2)cc(OC)c1OCCN1CCN(C)CC1 [Compound 85]
- IC50 (CDK4; [6]): 322 nM
- IC50 (A2780 cells; [10]): 228 nM
- IC50 (AKT3 [2]; [7]): > 1000 nM
- IC50 (CDC25B; [8]): 48.4 nM
- IC50 (AKT3 [1]; [9]): 345 nM
- solubility (physchem): > 1800 µM

SMILES: COc1cc(-c2nc3c(=O)n(C)c(=O)nc-3n(C(C)C)n2)cc(OC)c1OS(=O)(=O)N(C)C [Compound 86]
- IC50 (CDK4; [6]): 272 nM
- IC50 (A2780 cells; [10]): 264 nM
- IC50 (AKT3 [2]; [7]): > 1000 nM
- IC50 (CDC25B; [8]): 38.6 nM
- IC50 (AKT3 [1]; [9]): 273 nM
- solubility (physchem): 160 to 1800 µM (≈ 76.9 to 865 µg/mL)

SMILES: CC(C)n1nc(-c2ccc(OS(=O)(=O)N(C)C)cc2)nc2c(=O)n(C)c(=O)nc1-2 [Compound 87]
- IC50 (CDK4; [3]): 274 nM
- IC50 (A2780 cells; [10]): 198 nM
- IC50 (AKT3 [2]; [11]): > 1000 nM
- IC50 (CDC25B; [12]): 48.3 nM
- IC50 (AKT3 [1]; [5]): 410 nM
- solubility (physchem): 160 to 1800 µM (≈ 67.3 to 757 µg/mL)

SMILES: CC(C)n1nc(-c2ccc(OCCN3CCCCC3)c(Cl)c2)nc2c(=O)n(C)c(=O)nc1-2 [Compound 88]
- IC50 (CDK4; [6]): 267 nM
- IC50 (A2780 cells; [10]): 168 nM
- IC50 (AKT3 [2]; [7]): > 1000 nM
- IC50 (CDC25B; [8]): 25.8 nM
- IC50 (AKT3 [1]; [9]): 239 nM
- solubility (physchem): 160 to 1800 µM (≈ 73.4 to 826 µg/mL)

SMILES: COc1cc(-c2nc3c(=O)n(C)c(=O)nc-3n(C(C)C)n2)cc(OC)c1OCCN1CCN(C(=O)OC(C)(C)C)CC1 [Compound 89]
- IC50 (CDK4; [6]): 506 nM
- IC50 (A2780 cells; [10]): 527 nM
- IC50 (AKT3 [2]; [7]): > 1000 nM
- IC50 (CDC25B; [8]): 35.5 nM
- IC50 (AKT3 [1]; [9]): 352 nM
- solubility (physchem): > 1800 µM

SMILES: CC(C)n1nc(-c2ccc(OCCCN3CCCCC3)cc2)nc2c(=O)n(C)c(=O)nc1-2 [Compound 90]
- Cytotox survival of A2780 cells after 3 days - pIC50 values (A2780 cells; A2780 cells, 3 days): 6.842
- IC50 (CDC25B; [8]): 27.9 nM
- IC50 (AKT3 [1]; [9]): 181 nM

SMILES: CC(C)n1nc(-c2ccc(CNCCc3cccnc3)cc2)nc2c(=O)n(C)c(=O)nc1-2 [Compound 93]
- IC50 (CDK4; [3]): 193 nM
- IC50 (A2780 cells; [4]): 272 nM
- IC50 (AKT3 [2]; [11]): > 1000 nM
- IC50 (CDC25B; [12]): 49.1 nM
- IC50 (AKT3 [1]; [5]): 279 nM
- solubility (physchem): > 1800 µM

SMILES: CC(C)n1nc(-c2ccc(OCCN3CCCCC3)cc2)nc2c(=O)n(C)c(=O)nc1-2 [Compound 94]
- IC50 (CDK4; [6]): 173 nM
- IC50 (A2780 cells; [10]): 163 nM
- IC50 (CDC25B; [8]): 36.4 nM
- IC50 (AKT3 [1]; [9]): 165 nM
- solubility (physchem): > 1800 µM

SMILES: CC(C)n1nc(-c2ccc(OCCN(C)S(=O)(=O)N(C)C)cc2)nc2c(=O)n(C)c(=O)nc1-2 [Compound 95]
- IC50 (CDK4; [6]): 321 nM
- IC50 (A2780 cells; [10]): 481 nM
- IC50 (AKT3 [2]; [7]): > 3000 nM
- IC50 (CDC25B; [8]): 41.4 nM
- IC50 (AKT3 [1]; [9]): 190 nM
- solubility (physchem): 160 to 1800 µM (≈ 76.4 to 860 µg/mL)

SMILES: COc1cc(-c2nc3c(=O)n(C)c(=O)nc-3n(C(C)C)n2)cc(OC)c1OCCN1CCN(S(N)(=O)=O)CC1 [Compound 96]
- IC50 (CDK4; [6]): 205 nM
- IC50 (A2780 cells; [10]): 492 nM
- IC50 (AKT3 [2]; [7]): > 3000 nM
- IC50 (CDC25B; [8]): 45 nM
- IC50 (AKT3 [1]; [9]): 175 nM
- solubility (physchem): > 1800 µM

SMILES: CC(C)n1nc(-c2ccc(OCCN3CCN(C)CC3)cc2)nc2c(=O)n(C)c(=O)nc1-2 [Compound 97]
- IC50 (CDK4; [6]): 164 nM
- IC50 (A2780 cells; [10]): 292 nM
- IC50 (AKT3 [2]; [7]): > 3000 nM
- IC50 (CDC25B; [8]): 42.7 nM
- IC50 (AKT3 [1]; [9]): 198 nM
- solubility (physchem): > 1800 µM

SMILES: CC(C)n1nc(-c2ccc(OCCNS(=O)(=O)N(C)C)cc2)nc2c(=O)n(C)c(=O)nc1-2 [Compound 109]
- IC50 (CDK4; [6]): 166 nM
- IC50 (A2780 cells; [10]): 594 nM
- IC50 (AKT3 [2]; [7]): > 3020 nM
- IC50 (AKT3 [1]; [9]): 155 nM
- solubility (physchem): 160 to 1800 µM (≈ 74.2 to 834 µg/mL)

SMILES: COc1cc(-c2nc3c(=O)n(C)c(=O)nc-3n(C3CCNCC3)n2)ccc1OCCN1CCCCC1 [Compound 152]
- IC50 (CDK4; [6]): 187 nM
- IC50 (A2780 cells; [10]): 630 nM
- IC50 (AKT3 [2]; [7]): ≥ 3000 nM
- IC50 (CDC25B; [8]): 25.4 nM
- IC50 (AKT3 [1]; [9]): 275 nM

SMILES: Cn1c(=O)nc2n(C3CCNCC3)nc(-c3ccc(CCCN4CCCCC4)cc3)nc-2c1=O [Compound 155]
- IC50 (CDK4; [3]): 72.6 nM
- IC50 (A2780 cells; [10]): 177 nM
- IC50 (AKT3 [2]; [11]): 469 nM
- IC50 (CDC25B; [12]): 36.9 nM
- IC50 (AKT3 [1]; [5]): 232 nM
